Columns and labels:
Assay in all cases: microbe, parasite or virus in culture
[1] = system: Plasmodium falciparum; conditions: F07-7, 72 h
[2] = system: Plasmodium falciparum; conditions: F07-23, 72 h
[3] = system: Plasmodium falciparum; conditions: F08B53, 72 h
[4] = system: Plasmodium falciparum; conditions: F07-13, 72 h
[5] = system: Plasmodium falciparum; conditions: F09A54, 72 h
[6] = system: Plasmodium falciparum; conditions: F09A55, 72 h
[7] = system: Plasmodium falciparum; conditions: F09A9, 72 h
[8] = system: Plasmodium falciparum; conditions: F07-3, 72 h
[9] = system: Plasmodium falciparum; conditions: F07-46, 72 h
[10] = system: Plasmodium falciparum; conditions: F09N35, 72 h
[11] = system: Plasmodium falciparum; conditions: F09N58, 72 h
[12] = system: Plasmodium falciparum; conditions: F09N66, 72 h
[13] = system: Plasmodium falciparum; conditions: F07-8, 72 h
[14] = system: Plasmodium falciparum; conditions: F07-28, 72 h
[15] = system: Plasmodium falciparum; conditions: F07-31, 72 h
[16] = system: Plasmodium falciparum; conditions: F07-35, 72 h
[17] = system: Plasmodium falciparum; conditions: F07-42, 72 h
[18] = system: Plasmodium falciparum; conditions: F08B2, 72 h
[19] = system: Plasmodium falciparum; conditions: F08B9, 72 h
[20] = system: Plasmodium falciparum; conditions: F08B27, 72 h
[21] = system: Plasmodium falciparum; conditions: F08B41, 72 h
[22] = system: Plasmodium falciparum; conditions: F08B61, 72 h
[23] = system: Plasmodium falciparum; conditions: F09A10, 72 h
[24] = system: Plasmodium falciparum; conditions: F09A41, 72 h
[25] = system: Plasmodium falciparum; conditions: F09A61, 72 h
[26] = system: Plasmodium falciparum; conditions: F09N6, 72 h
[27] = system: Plasmodium falciparum; conditions: F09N29, 72 h
[28] = system: Plasmodium falciparum; conditions: F09N40, 72 h
[29] = system: Plasmodium falciparum; conditions: F09N64, 72 h
[30] = system: Plasmodium falciparum; conditions: F08B7, 72 h
[31] = system: Plasmodium falciparum; conditions: F08B40, 72 h
[32] = system: Plasmodium falciparum; conditions: W2, 72 h
[33] = system: Plasmodium falciparum; conditions: K1, 72 h
[34] = system: Plasmodium falciparum; conditions: 72 h
Description: Antimicrobial activity against Plasmodium falciparum harboring pfnhe1 ms4760 haplotype 9 carrying 3 copies of DNNND repeat and His/Asp ratio 7:6 infected in human erythrocytes after 72 hrs by SYBR green I-based fluorescence assay

[35] = system: Plasmodium falciparum; conditions: 72 h; remark: listed apart in the source
Description: Antimicrobial activity against Plasmodium falciparum harboring pfnhe1 ms4760 haplotype 35 carrying 1 copy of DNNND repeat and His/Asp ratio 5:2 infected in human erythrocytes after 72 hrs by SYBR green I-based fluorescence assay

[36] = system: Plasmodium falciparum; conditions: 72 h; remark: listed apart in the source
Description: Antimicrobial activity against Plasmodium falciparum harboring pfnhe1 ms4760 haplotype 3 carrying 1 copy of DNNND repeat and His/Asp ratio 6:2 infected in human erythrocytes after 72 hrs by SYBR green I-based fluorescence assay

`C=C[C@H]1CN2CC[C@H]1C[C@H]2[C@H](O)c1ccnc2ccc(OC)cc12` [QUININE] showed an IC50 [1] of 456 nM, an IC50 [2] of 447 nM and an IC50 [3] of 468 nM. For the same compound, the IC50 [4] was 365 nM, the IC50 [5] was 243 nM and the IC50 [6] was 149 nM. The IC50 [7] was 562 nM, the IC50 [8] was 875 nM and the IC50 [9] was 894 nM. The IC50 [10] was 905 nM, the IC50 [11] was 448 nM and the IC50 [12] was 711 nM. For the same compound, the IC50 [13] was 874 nM, the IC50 [14] was 473 nM and the IC50 [15] was 433 nM. The IC50 [16] was 821 nM, the IC50 [17] was 388 nM and the IC50 [18] was 1020 nM. It also gave an IC50 [19] of 218 nM, an IC50 [20] of 870 nM and an IC50 [21] of 886 nM. The IC50 [22] was 1130 nM, the IC50 [23] was 716 nM and the IC50 [24] was 1300 nM. The IC50 [25] was 373 nM, the IC50 [26] was 710 nM and the IC50 [27] was 853 nM. It also gave an IC50 [28] of 2120 nM, an IC50 [29] of 475 nM and an IC50 [30] of 1100 nM. The IC50 [31] was 260 nM, the IC50 [32] was 720 nM and the IC50 [33] was 407 nM. For the same compound, the IC50 [34] was 837 nM, the IC50 [35] was 260 nM and the IC50 [36] was 223 nM.

Reference: ChEMBL document CHEMBL1671726 (Antimicrob Agents Chemother, 2010)
